Test results reported in patent US20260070903A1, “NOVEL PYRIDO[3,4-D]PYRIMIDIN-8-ONE DERIVATIVE HAVING PROTEIN KINASE INHIBITORY ACTIVITY, AND PHARMACEUTICAL COMPOSITION FOR PREVENTING, ALLEVIATING, OR TREATING CANCER, COMPRISING SAME” (KOREA INSTITUTE OF SCIENCE AND TECHNOLOGY, priority 2019, published 2026).

How the values were obtained:
Details in all cases: single concentration of 1 μM, read-out: percent inhibition of kinase
ABL1 = ABL1 (Homo sapiens, UniProt P00519); test: Kinase panel biochemical assay, ABL1
Description: (§1) As a test compound, Compound No. 55 was used. The percent inhibition of each kinase when treated with the test compound at a single concentration of 1 μM was measured, and the residual enzyme activity values (%) of the kinases were calculated. Kinases whose calculated residual enzyme activity values (%) was 30% or less (i.e., kinases inhibited by 70% or more) are as follows: […]

SRMS = SRMS (Homo sapiens, UniProt Q9H3Y6); test: Kinase panel biochemical assay, SRMS
Description: as §1

p38b = p38b (Homo sapiens, UniProt Q15759); test: Kinase panel biochemical assay, p38b
Description: as §1

TAOK2 = TAOK2 (Homo sapiens, UniProt Q9UL54); test: Kinase panel biochemical assay, TAOK2
Description: as §1

Measured: inhibition at 1 µM

p38b, sequence (Q15759 whole entry): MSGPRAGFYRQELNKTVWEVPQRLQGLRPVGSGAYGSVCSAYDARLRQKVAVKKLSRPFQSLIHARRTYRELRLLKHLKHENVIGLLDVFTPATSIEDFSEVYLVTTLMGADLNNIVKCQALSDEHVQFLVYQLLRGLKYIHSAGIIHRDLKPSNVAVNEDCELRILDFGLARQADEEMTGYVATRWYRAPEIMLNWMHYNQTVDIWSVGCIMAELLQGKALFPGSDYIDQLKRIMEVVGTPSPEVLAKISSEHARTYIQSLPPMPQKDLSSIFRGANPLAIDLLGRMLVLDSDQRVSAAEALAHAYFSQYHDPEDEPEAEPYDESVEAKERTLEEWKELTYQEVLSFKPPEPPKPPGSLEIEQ
TAOK2, sequence (Q9UL54 whole entry): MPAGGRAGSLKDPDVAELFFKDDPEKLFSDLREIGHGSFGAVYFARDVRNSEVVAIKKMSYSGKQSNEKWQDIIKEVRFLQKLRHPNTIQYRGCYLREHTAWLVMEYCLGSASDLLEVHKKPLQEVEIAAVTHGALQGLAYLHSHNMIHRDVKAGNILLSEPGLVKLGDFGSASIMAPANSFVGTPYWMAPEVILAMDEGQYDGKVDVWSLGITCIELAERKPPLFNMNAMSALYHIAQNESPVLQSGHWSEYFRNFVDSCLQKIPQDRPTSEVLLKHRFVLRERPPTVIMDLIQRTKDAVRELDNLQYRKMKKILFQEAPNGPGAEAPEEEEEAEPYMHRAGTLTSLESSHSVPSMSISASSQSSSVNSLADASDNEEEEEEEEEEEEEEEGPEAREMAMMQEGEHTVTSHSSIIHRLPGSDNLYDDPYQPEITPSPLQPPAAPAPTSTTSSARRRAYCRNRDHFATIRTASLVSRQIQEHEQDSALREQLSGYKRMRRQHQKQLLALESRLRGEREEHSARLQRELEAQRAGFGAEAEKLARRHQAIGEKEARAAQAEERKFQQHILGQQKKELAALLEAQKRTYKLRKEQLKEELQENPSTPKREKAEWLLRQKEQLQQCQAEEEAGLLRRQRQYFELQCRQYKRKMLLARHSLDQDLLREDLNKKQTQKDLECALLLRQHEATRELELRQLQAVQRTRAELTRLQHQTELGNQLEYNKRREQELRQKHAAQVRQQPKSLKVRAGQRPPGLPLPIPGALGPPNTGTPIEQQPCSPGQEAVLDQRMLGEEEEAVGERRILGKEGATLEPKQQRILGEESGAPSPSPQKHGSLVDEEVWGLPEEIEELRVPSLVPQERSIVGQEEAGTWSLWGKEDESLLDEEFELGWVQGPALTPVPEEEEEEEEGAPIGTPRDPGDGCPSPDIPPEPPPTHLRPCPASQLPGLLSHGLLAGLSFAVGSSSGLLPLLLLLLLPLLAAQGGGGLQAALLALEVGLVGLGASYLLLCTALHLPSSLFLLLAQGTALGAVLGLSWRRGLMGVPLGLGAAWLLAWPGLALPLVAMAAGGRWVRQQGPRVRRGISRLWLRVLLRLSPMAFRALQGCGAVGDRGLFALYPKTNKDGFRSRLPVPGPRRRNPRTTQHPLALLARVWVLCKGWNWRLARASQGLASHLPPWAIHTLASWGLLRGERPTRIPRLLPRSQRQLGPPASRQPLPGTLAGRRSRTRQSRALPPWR
SRMS, sequence (Q9H3Y6 whole entry): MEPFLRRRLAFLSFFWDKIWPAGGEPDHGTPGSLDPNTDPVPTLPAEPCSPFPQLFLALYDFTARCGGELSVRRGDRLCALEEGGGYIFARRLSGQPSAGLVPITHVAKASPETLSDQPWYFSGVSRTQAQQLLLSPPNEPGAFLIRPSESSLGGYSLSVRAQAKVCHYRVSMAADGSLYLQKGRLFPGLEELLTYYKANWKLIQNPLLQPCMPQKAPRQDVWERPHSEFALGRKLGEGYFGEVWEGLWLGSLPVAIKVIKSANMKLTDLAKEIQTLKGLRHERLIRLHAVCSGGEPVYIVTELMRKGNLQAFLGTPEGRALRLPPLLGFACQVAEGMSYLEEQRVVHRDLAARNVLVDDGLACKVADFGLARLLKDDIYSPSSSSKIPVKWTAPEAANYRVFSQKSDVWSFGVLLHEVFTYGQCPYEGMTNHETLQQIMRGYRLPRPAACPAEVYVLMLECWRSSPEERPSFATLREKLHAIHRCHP
ABL1, sequence (P00519 whole entry): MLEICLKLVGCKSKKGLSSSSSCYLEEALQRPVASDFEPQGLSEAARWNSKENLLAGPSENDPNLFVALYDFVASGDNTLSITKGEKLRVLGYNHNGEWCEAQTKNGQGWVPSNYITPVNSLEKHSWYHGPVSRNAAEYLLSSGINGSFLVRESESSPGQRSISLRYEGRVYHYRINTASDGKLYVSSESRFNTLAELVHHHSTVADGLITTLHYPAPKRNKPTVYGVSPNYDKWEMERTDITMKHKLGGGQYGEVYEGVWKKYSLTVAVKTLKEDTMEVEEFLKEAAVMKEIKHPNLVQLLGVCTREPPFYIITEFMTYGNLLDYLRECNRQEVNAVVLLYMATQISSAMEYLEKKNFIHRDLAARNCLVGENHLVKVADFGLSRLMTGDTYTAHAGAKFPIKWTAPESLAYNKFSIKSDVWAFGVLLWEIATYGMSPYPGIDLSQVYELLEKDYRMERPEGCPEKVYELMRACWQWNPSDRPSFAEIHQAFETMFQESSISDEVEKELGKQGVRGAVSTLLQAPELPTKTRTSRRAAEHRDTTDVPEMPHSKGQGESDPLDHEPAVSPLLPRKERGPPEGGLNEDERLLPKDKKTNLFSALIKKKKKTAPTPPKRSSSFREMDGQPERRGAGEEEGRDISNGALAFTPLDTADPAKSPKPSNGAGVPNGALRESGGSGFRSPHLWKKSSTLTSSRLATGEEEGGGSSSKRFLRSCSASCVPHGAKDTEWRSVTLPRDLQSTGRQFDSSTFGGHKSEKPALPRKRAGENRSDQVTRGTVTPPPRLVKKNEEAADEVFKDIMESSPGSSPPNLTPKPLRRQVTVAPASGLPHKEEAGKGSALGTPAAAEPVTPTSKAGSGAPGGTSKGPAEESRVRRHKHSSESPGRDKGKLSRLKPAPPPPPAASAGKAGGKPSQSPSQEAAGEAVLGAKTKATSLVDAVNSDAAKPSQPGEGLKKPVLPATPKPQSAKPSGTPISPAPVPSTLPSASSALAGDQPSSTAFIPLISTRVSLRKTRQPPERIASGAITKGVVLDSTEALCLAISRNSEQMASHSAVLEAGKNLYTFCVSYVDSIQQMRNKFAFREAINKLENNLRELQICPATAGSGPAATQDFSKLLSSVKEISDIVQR

Cc1ccc(NC(=O)c2cccc(C(F)(F)F)c2)cc1-c1cc2cnc(N)nc2c(=O)[nH]1 [Compound No. 55, N-(3-(2-amino-8-oxo-7,8-dihydropyrido[3,4-d]pyrimidin-6-yl)-4-methylphenyl)-3-(trifluoromethyl)benzamide]
≥ 70%: all assays above
